Here are results for 1 substance from patent publication US20240166703A1, “ANTI-INFLAMMATORY PEPTIDE AND METHOD OF USE THEREOF” (The Regents of the University of California, priority 2021, published 2024).

“Also recorded” adds a separate entry of the source.

The target of assay [1] is T1, polyubiquitin-dependent second interaction between NEMO and IKK2 (Homo sapiens, UniProt O14920).
T1 construct: proteins of HEK293T cells expressing full length human IKK2 were extracted; expressed in transfected cells; host or cells: HEK293T whole cell lysate supplied HA-IKK2; GST-NEMO 241-419 was expressed in E. coli Rosetta (DE3)
T1 sequence (O14920 1-756): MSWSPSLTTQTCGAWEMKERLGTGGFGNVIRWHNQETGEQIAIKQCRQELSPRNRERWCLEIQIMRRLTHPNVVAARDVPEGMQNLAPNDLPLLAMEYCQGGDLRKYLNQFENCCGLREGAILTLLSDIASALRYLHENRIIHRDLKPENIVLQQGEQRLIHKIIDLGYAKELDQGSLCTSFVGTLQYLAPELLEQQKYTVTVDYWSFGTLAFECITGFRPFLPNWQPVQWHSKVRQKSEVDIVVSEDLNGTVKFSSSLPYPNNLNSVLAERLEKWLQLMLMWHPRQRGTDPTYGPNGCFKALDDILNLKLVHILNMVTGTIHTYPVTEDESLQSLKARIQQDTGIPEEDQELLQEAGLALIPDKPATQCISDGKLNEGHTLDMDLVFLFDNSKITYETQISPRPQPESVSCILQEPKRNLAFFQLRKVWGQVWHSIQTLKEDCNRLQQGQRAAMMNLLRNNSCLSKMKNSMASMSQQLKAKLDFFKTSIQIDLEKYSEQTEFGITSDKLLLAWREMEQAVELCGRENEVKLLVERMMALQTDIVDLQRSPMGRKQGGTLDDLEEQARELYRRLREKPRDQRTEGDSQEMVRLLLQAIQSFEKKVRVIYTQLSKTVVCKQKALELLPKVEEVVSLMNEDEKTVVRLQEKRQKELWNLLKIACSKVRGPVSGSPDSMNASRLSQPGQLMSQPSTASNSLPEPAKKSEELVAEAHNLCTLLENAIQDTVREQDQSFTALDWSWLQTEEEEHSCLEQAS
Nature of the assay: Peptide in vitro GST pull-down from HA-IKK2-transfected HEK293T whole cell lysates. Conditions: peptide 200-25 μM. In kind it is binding. As for the experimental part: Proteins of HEK293T cells transfected with full length human IKK2 or mutants were extracted using RIPA buffer. After centrifugation at 16,000×g for 20 minutes, the supernatants were adjusted to the binding buffer (containing 1.5 mU Hexokinase) and incubated on a rotating platform for 1 hour at 4° C. These whole-cell extracts were then incubated with E. coli-expressed GST-fusion NEMO in the absence or presence of Ub4 on a rotating platform for 2 hours at 4° C. The beads were centrifuged at 1,000×g for 2 minutes and washed four times in binding buffer. Proteins bound to beads were resuspended in SDS loading buffer, resolved by SDS-PAGE, and analyzed by western blot.
For peptide in vitro pull-down assay, proteins of HEK293T cells expressing full length human IKK2 were extracted using the same lysis buffer described above. Whole cell lysates were mixed with E. coli-expressed GST-NEMO with or without NEMO^ActPep or mNEMO^ActPep at different concentrations in the absence of presence of Ub4 and incubated on a rotating platform for 2 hours at 4° C. The beads were then washed four times in the binding buffer. Proteins bound to beads were resuspended in SDS-PAGE loading buffer, separated by SDS-PAGE, and analyzed by western blot. […]

For assay [2], the system named is NF-κB activation in bone marrow-derived macrophage (BMDM) cells. Nature of the assay: EMSA of NF-κB activation in LPS-treated BMDM cells. In kind it is cell-based, C57BL/6J mice. Conditions: 50 μM peptide pre-incubation. As for the experimental part:
Electrophoretic mobility shift assay (EMSA) was performed using recombinant full length NF-κB ReIA homodimer as a positive control as previously described (45). Briefly, Ig-κB probe was radiolabeled with ^32P-γ-ATP (6,000 Ci/mmol; 10 μCi/μL) and incubated with nuclear lysates for 20 minutes at room temperature in binding buffer (10 mM Tris-HCl pH 7.5, 10% (v/v) glycerol, 1% (v/v) NP-40, 1 mM EDTA, and 0.1 mg/mL salmon sperm DNA). Samples separated in 4% nondenaturing polyacrylamide gels in TGE buffer (24.8 mM Tris base, 190 mM glycine, and 1 mM EDTA) at 200 V for 1 hour, and the gel was dried. The amount of protein in lysates was quantified by Bio-Rad protein assay. EMSA analysis with quantitative densitometry and signal intensity was quantitated using ImageJ software. All EMSA experiments were performed in triplicate.
With the approval of the UCSD and Veteran Affairs San Diego Institutional Animal Care and Use Committees (IACUC), bone marrow-derived macrophage (BMDM) cells were isolated from 6-8 weeks old C57BL/6J mice (Jackson Laboratory) followed by erythrocyte lysis with ammonium chloride, and then seeded in 12-well plates at a concentration of 1×10^6 cells/mL. Cultured cells were differentiated to macrophages with culture media containing monocyte-colony stimulating factor (M-CSF; 10 ng/mL). […]
For orientation: In EMSA bound probe runs differently from free probe, usually more slowly.

Assay [3] has as its system constitutive nuclear transcription factor Oct1. Nature of the assay: EMSA of Oct1 binding to its probe, HeLa nuclear extracts. In kind it is cell-based, human. The conditions noted are these: peptide 10-50 μM.

As to “TAT-NEMO^ActPep: HIV-1 TAT fused flexibly to human NEMO amino acids 375-391; cell permeable version of NEMO activation peptide (SEQ ID NO 2) (YGRKKRRQRRRGGLSSPLALPSQRRSPPEE)”, the “HA-IKK2 pulled down by GST-NEMO^241-419 in the presence of Ub4 (NEMO:IKK2 second interaction, western blot)” value in assay [1] was “loss of this interaction was observed with increasing concentrations”. The “NF-κB activation in response to LPS (EMSA)” value in assay [2] was “inhibition of NF-κB activation; also recorded: disrupts NF-κB-dependent shift of the radiolabeled probe”. For the same substance, the “binding of Oct1 to its probe (EMSA)” value in assay [3] was “not affected”.
